Reference: patent US20260109707A1, “HETEROBIFUNCTIONAL COMPOUNDS AND METHODS OF TREATING DISEASE” (Halda Therapeutics OpCo. Inc., priority 2022, published 2026)
Where two headings read alike, the source gives them in different places.

Legend:
[1] = system: T-Rex 293 cell line SC3 cells lacking increased expression of androgen receptor protein; assay: Cellular growth inhibition assay, T-Rex 293 SC3 cells without doxycycline (CellTiter-Glo, 72 hours); type: cell-based; conditions: T-Rex 293 cell line SC3 cells not exposed to doxycycline (lacking increased androgen receptor expression)
How it was run: (§1)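 Doxycycline (10 ng/mL) was either included or omitted to toggle wild-type androgen receptor expression in SC3 cells, a T-Rex 293 clone, grown in stripped-serum, phenol red-free medium. After 72 hours with compound, viable cells were quantified by CellTiter-Glo 2.0.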

[2] = system: T-Rex 293 cell line SC3 cells having increased expression of androgen receptor protein due to exposure to doxycycline; assay: Cellular growth inhibition assay, T-Rex 293 SC3 cells with doxycycline (CellTiter-Glo, 72 hours); type: cell-based; conditions: T-Rex 293 SC3 cells with increased androgen receptor expression due to doxycycline (10 ng/mL)
How it was run: as §1

VCaP cells = assay: Cellular growth inhibition assay for VCaP cells (CellTiter-Glo, 72 hours); type: cell-based, human
How it was run: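 Luminescent viability signal after 72 h of compound exposure gave GI50 values by four-parameter nonlinear regression. Compounds were added in 0.5% DMSO to cells plated 24 h earlier at 5000/well in DMEM containing 10% FBS.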

T47D cells = assay: Cellular growth inhibition assay for T47D cells (CellTiter-Glo, 72 hours); type: cell-based, human; conditions: 72 hours treatment
How it was run: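 Cells are plated at 3000/well and allowed 24 h before treatment. Test compound in medium containing 0.5% DMSO is then added, with DMSO-only wells as negative control, and plates are incubated 72 h at 37 °C. ATP luminescence (CellTiter-Glo 2.0) is then fitted to four parameters to derive GI50.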

Work on `Cc1sc2c(c1C)C(c1ccc(O[C@H]3C[C@@]4(CCCN(c5ccc(C(=O)N[C@H]6CC[C@H](Oc7ccc(C#N)c(Cl)c7)CC6)nn5)C4)C3)nc1)=N[C@H](Cc1ncco1)c1nnc(C)n1-2` [I-221] yielded a GI50 ([1]; 72 h) of over 3000 nM, a GI50 ([2]; 72 h) of under 500 nM and a GI50 (VCaP cells; Homo sapiens, VCaP, 72 h) of over 3000 nM. For the same compound, the GI50 (T47D cells; Homo sapiens, T47D, 72 h) was over 3000 nM.
In the case of `Cc1sc2c(c1C)C(c1ccc(C#CCC3CCN(c4ccc(C(=O)N[C@H]5CC[C@H](Oc6ccc(C#N)c(Cl)c6)CC5)nn4)CC3)cc1)=N[C@@H](Cc1ncco1)c1nnc(C)n1-2` [I-136, N-[4-(3-chloro-4-cyano-phenoxy)cyclohexyl]-6-[4-[3-[4-[(9S)-4,5,13-trimethyl-9-(oxazol-2-ylmethyl)-3-thia-1,8,11,12-tetrazatricyclo[8.3.0.02,6]trideca-2(6),4,7,10,12-pentaen-7-yl]phenyl]prop-2-ynyl]-1-piperidyl]pyridazine-3-carboxamide], the GI50 ([1]; 72 h) is reported as under 500 nM, the GI50 ([2]; 72 h) is reported as under 500 nM and the GI50 (VCaP cells; Homo sapiens, VCaP, 72 h) is reported as under 500 nM. The GI50 (T47D cells; Homo sapiens, T47D, 72 h) was under 500 nM.
With `Cc1sc2c(c1C)C(c1ccc(C(C)(C)N3CCC4(CCCN(c5ccc(C(=O)N[C@H]6CC[C@H](Oc7ccc(C#N)c(Cl)c7)CC6)nn5)C4)C3)cc1)=N[C@@H](Cc1ncco1)c1nnc(C)n1-2` (stereo partly drawn) [I-359] the GI50 ([1]; 72 h) was over 3000 nM, the GI50 ([2]; 72 h) was over 3000 nM and the GI50 (VCaP cells; Homo sapiens, VCaP, 72 h) was over 3000 nM. For the same compound, the GI50 (T47D cells; Homo sapiens, T47D, 72 h) was over 3000 nM.
For `Cc1sc2c(c1C)C(c1ccc(CCC3CC4(CCCC(c5ccc(C(=O)N[C@H]6CC[C@H](Oc7ccc(C#N)c(Cl)c7)CC6)nn5)C4)C3)nc1)=N[C@@H](Cc1ncco1)c1nnc(C)n1-2` (stereo partly drawn) [I-439], the GI50 [1] was under 500 nM, the GI50 [2] was under 500 nM and the GI50 (VCaP cells) was 500 to 1500 nM. The GI50 (T47D cells) was 500 to 1500 nM.
Work on `Cc1sc2c(c1C)C(c1ccc(O[C@H]3C[C@]4(CCCN(c5ccc(C(=O)N[C@H]6CC[C@H](Oc7ccc(C#N)c(Cl)c7)CC6)nn5)C4)C3)cc1)=N[C@@H](C)c1nnc(C)n1-2` [I-350] yielded a GI50 ([1]; 72 h) of over 3000 nM, a GI50 ([2]; 72 h) of under 500 nM and a GI50 (VCaP cells; Homo sapiens, VCaP, 72 h) of under 500 nM. It also gave a GI50 (T47D cells; Homo sapiens, T47D, 72 h) of 500 to 1500 nM.
With `Cc1sc2c(c1C)C(c1ccc(CN(C)C(=O)NCc3ccc(C(=O)N[C@H]4CC[C@H](Oc5ccc(C#N)c(Cl)c5)CC4)nn3)cc1)=N[C@@H](Cc1ncco1)c1nnc(C)n1-2` [I-318] the GI50 ([1]; 72 h) was over 3000 nM, the GI50 ([2]; 72 h) was under 500 nM and the GI50 (VCaP cells; Homo sapiens, VCaP, 72 h) was under 500 nM. It also gave a GI50 (T47D cells; Homo sapiens, T47D, 72 h) of over 3000 nM.
Work on `Cc1sc2c(c1C)C(c1ccc([C@H]3C[C@H](C4CC5(CCN(c6ccc(C(=O)N[C@H]7CC[C@H](Oc8ccc(C#N)c(Cl)c8)CC7)nn6)CC5)C4)C3)cc1)=N[C@H](Cc1ncco1)c1nnc(C)n1-2` [I-383] yielded a GI50 ([1]; 72 h) of over 3000 nM, a GI50 ([2]; 72 h) of under 500 nM and a GI50 (VCaP cells; Homo sapiens, VCaP, 72 h) of under 500 nM. It also gave a GI50 (T47D cells; Homo sapiens, T47D, 72 h) of under 500 nM.
`Cc1sc2c(c1C)C(c1ccc(O[C@H]3C[C@@H](N(C(C)C)C4CCN(c5ccc(C(=O)N[C@H]6CC[C@H](Oc7ccc(C#N)c(Cl)c7)CC6)nn5)CC4)C3)cc1)=N[C@@H](Cc1ncco1)c1nnc(C)n1-2` [I-246] gave a GI50 ([1]; 72 h) of under 500 nM, a GI50 ([2]; 72 h) of under 500 nM and a GI50 (VCaP cells; Homo sapiens, VCaP, 72 h) of under 500 nM. For the same compound, the GI50 (T47D cells; Homo sapiens, T47D, 72 h) was under 500 nM.
In the case of `Cc1sc2c(c1C)C(c1ccc(-c3ccc(C4CCN(c5ccc(C(=O)NC6CCC(Oc7ccc(C#N)c(Cl)c7)CC6)nn5)CC4)cc3)cc1)=N[C@H](Cc1ncco1)c1nnc(C)n1-2` (stereo partly drawn) [I-370], the GI50 ([1]; 72 h) is reported as over 3000 nM, the GI50 ([2]; 72 h) is reported as under 500 nM and the GI50 (VCaP cells; Homo sapiens, VCaP, 72 h) is reported as over 3000 nM. It also gave a GI50 (T47D cells; Homo sapiens, T47D, 72 h) of 500 to 1500 nM.
Work on `Cc1sc2c(c1C)C(c1ccc(N3CC(C4CCN(c5ccc(C(=O)N[C@H]6CC[C@H](Oc7ccc(C#N)c(Cl)c7)CC6)nn5)CC4)C3)cc1)=N[C@@H](Cc1ncco1)c1nnc(C)n1-2` [I-386] yielded a GI50 ([1]; 72 h) of under 500 nM, a GI50 ([2]; 72 h) of under 500 nM and a GI50 (VCaP cells; Homo sapiens, VCaP, 72 h) of under 500 nM. For the same compound, the GI50 (T47D cells; Homo sapiens, T47D, 72 h) was under 500 nM.
Compound `Cc1sc2c(c1C)C(c1ccc(CC(=O)NCCc3ccc(C(=O)N[C@H]4CC[C@H](Oc5ccc(C#N)c(Cl)c5)CC4)nn3)cc1)=N[C@@H](Cc1ncco1)c1nnc(C)n1-2` [I-317] has a GI50 ([1]; 72 h) of 500 to 1500 nM, a GI50 ([2]; 72 h) of under 500 nM and a GI50 (VCaP cells; Homo sapiens, VCaP, 72 h) of under 500 nM. For the same compound, the GI50 (T47D cells; Homo sapiens, T47D, 72 h) was under 500 nM.
`Cc1sc2c(c1C)C(c1ccc(C(C)(C)CN3CC4(CCCN(c5ccc(C(=O)N[C@H]6CC[C@H](Oc7ccc(C#N)c(Cl)c7)CC6)nn5)C4)C3)cc1)=N[C@@H](Cc1ncco1)c1nnc(C)n1-2` [I-440] showed a GI50 ([1]; 72 h) of 500 to 1500 nM, a GI50 ([2]; 72 h) of under 500 nM and a GI50 (VCaP cells; Homo sapiens, VCaP, 72 h) of under 500 nM. It also gave a GI50 (T47D cells; Homo sapiens, T47D, 72 h) of 500 to 1500 nM.
In the case of `Cc1sc2c(c1C)C(c1ccc(O[C@H]3CCCN(c4ccc(C(=O)N[C@H]5CC[C@H](Oc6ccc(C#N)c(Cl)c6)CC5)nn4)C3)cc1)=N[C@@H](Cc1ncco1)c1nnc(C)n1-2` [I-217], the GI50 ([1]; 72 h) is reported as under 500 nM, the GI50 ([2]; 72 h) is reported as under 500 nM and the GI50 (VCaP cells; Homo sapiens, VCaP, 72 h) is reported as 1500 to 3000 nM. For the same compound, the GI50 (T47D cells; Homo sapiens, T47D, 72 h) was over 3000 nM.
`[2H]C([2H])(c1ccc(C2=N[C@@H](Cc3ncco3)c3nnc(C)n3-c3sc(C)c(C)c32)cc1)N1CC2(CCCN(c3ccc(C(=O)N[C@H]4CC[C@H](Oc5ccc(C#N)c(Cl)c5)CC4)nn3)C2)C1` [I-390] gave a GI50 ([1]; 72 h) of 500 to 1500 nM, a GI50 ([2]; 72 h) of under 500 nM and a GI50 (VCaP cells; Homo sapiens, VCaP, 72 h) of under 500 nM. The GI50 (T47D cells; Homo sapiens, T47D, 72 h) was 500 to 1500 nM.
Work on `Cc1sc2c(c1C)C(c1ccc(C[C@H]3C[C@]4(CCCN(c5ccc(C(=O)N[C@H]6CC[C@H](Oc7ccc(C#N)c(Cl)c7)CC6)nn5)C4)C3)cc1)=N[C@@H](C)c1nnc(C)n1-2` [I-352] yielded a GI50 ([1]; 72 h) of over 3000 nM, a GI50 ([2]; 72 h) of under 500 nM and a GI50 (VCaP cells; Homo sapiens, VCaP, 72 h) of under 500 nM. It also gave a GI50 (T47D cells; Homo sapiens, T47D, 72 h) of over 3000 nM.
